Experimental data from patent publication US10226041B2, “Compositions and methods for improving the quality of processed sperm” (Inguran, LLC, priority 2011, dated 2019).

Test system: sex-sorted sperm
Assay: DNA fragmentation of sex-sorted sperm (Halomax for animals kit)
Assay type: cell-based, cattle
Procedure: The levels of DNA fragmentation were also screened using a DNA fragmentation ‘Halomax for animals’ kit (Halotech DNA, sl, Madrid, Spain) to determine if there were any advantageous effects of using the antioxidants during the staining and processing of sex-sorted sperm. Two different breeds of cattle, Jersey and Holstein, were examined using two different concentrations of antioxidant, 0.25 mg/ml and 0.5 mg/ml of vitamin B12 with the 3 step protocol adding the same concentration of OSR during cell staining, in the collection catch fluid and prior to cryopreservation. One of the bulls was used to evaluate the effect of addition or omission of OSR at one or more of the sperm sorting steps. Motility and the level of DNA fragmentation were both recorded.

## vitamin B12
0 hr, 1 step-stain (+−−), Bull C (Jersey), Trial 1
  % DNA Fragmentation: 0.7%
0 hr, 1 step-stain (+−−), Bull C (Jersey), Trial 2
  % DNA Fragmentation: 0.7%
0 hr, 2 step-stain (++−), Bull C (Jersey), Trial 1
  % DNA Fragmentation: 0.3%
0 hr, 2 step-stain (++−), Bull C (Jersey), Trial 2
  % DNA Fragmentation: 0.3%
0 hr, 3 step (+++), Bull C (Jersey), Trial 1
  % DNA Fragmentation: 0%
0 hr, 3 step (+++), Bull C (Jersey), Trial 2
  % DNA Fragmentation: 0.3%
0 hr, vitamin B12 0.5 mg/ml, 3 step, Bull A (Jersey)
  % DNA Fragmentation: 0.3%
0 hr, vitamin B12 0.5 mg/ml, 3 step, Bull B (Holstein)
  % DNA Fragmentation: 0.3%
24 hr, 1 step-stain (+−−), Bull C (Jersey), Trial 1
  % DNA Fragmentation: 1%
24 hr, 1 step-stain (+−−), Bull C (Jersey), Trial 2
  % DNA Fragmentation: 1%
24 hr, 2 step-stain (++−), Bull C (Jersey), Trial 1
  % DNA Fragmentation: 1%
24 hr, 2 step-stain (++−), Bull C (Jersey), Trial 2
  % DNA Fragmentation: 0.7%
24 hr, 3 step (+++), Bull C (Jersey), Trial 1
  % DNA Fragmentation: 0.3%
24 hr, 3 step (+++), Bull C (Jersey), Trial 2
  % DNA Fragmentation: 0.3%
24 hr, vitamin B12 0.5 mg/ml, 3 step, Bull A (Jersey)
  % DNA Fragmentation: 0.7%
24 hr, vitamin B12 0.5 mg/ml, 3 step, Bull B (Holstein)
  % DNA Fragmentation: 0.3%
48 hr, 1 step-stain (+−−), Bull C (Jersey), Trial 1
  % DNA Fragmentation: 1.3%
48 hr, 1 step-stain (+−−), Bull C (Jersey), Trial 2
  % DNA Fragmentation: 1%
48 hr, 2 step-stain (++−), Bull C (Jersey), Trial 1
  % DNA Fragmentation: 1%
48 hr, 2 step-stain (++−), Bull C (Jersey), Trial 2
  % DNA Fragmentation: 0.7%
48 hr, 3 step (+++), Bull C (Jersey), Trial 1
  % DNA Fragmentation: 0.3%
48 hr, 3 step (+++), Bull C (Jersey), Trial 2
  % DNA Fragmentation: 0.7%
48 hr, vitamin B12 0.5 mg/ml, 3 step, Bull A (Jersey)
  % DNA Fragmentation: 1.3%
48 hr, vitamin B12 0.5 mg/ml, 3 step, Bull B (Holstein)
  % DNA Fragmentation: 0.7%
